In patent publication US20230123334A1, “AMINO LIPID COMPOUND, PREPARATION METHOD THEREFOR, AND APPLICATION THEREOF” (SHENZHEN SHENXIN BIOTECHNOLOGY CO., LTD., priority 2020, published 2023):

Key:
HEK293 cells [1] = assay: Preliminary screening as DNA vectors, GFP transfection of HEK293 cells; assay type: cell-based; details: HEK293 cells; lipid/DOPE liposome with 75 ng plasmid DNA (psin-EGFP-IRES-Puro); number of cells expressing GFP divided by total number of nuclei (Hoechst)
How it was run: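 Lipid + DOPE liposomes (NaOAc, pH 5.6) complexed w/ 75 ng psin-EGFP-IRES-Puro, 30 min RT; added to 3-5×10^4 HEK293/well, 37° C. Hoechst 0.2 μg/mL at 20-24 h, imaged after further 20-24 h. Efficiency = GFP+ cells / total nuclei.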

HEK293 cells [2] = assay: Preliminary screening as mRNA vectors, EGFP mRNA transfection of HEK293 cells; assay type: cell-based; details: HEK293 cells, 96-well plates, EGFP mRNA 50 ng per well; percentage of GFP fluorescent cells relative to total number of cells (Hoechst)
How it was run: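 Each well of HEK293 cells received 50 ng of EGFP mRNA. Efficiency was expressed as percent GFP-expressing cells over Hoechst-defined total cell number.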

Compound | Absolute DNA transfection efficiency in HEK293 cells (HEK293 cells [1]) | Absolute mRNA transfection efficiency in HEK293 cells (HEK293 cells [2])
CCCCCCCCCSc1nc(NCCCN2CCOCC2)nc(SCCCCCCCCC)n1 [Compound S9S9D8] | 19.1% | 14.8%
CCCCCCCCCSc1nc(NCCCN2CCN(C)CC2)nc(SCCCCCCCCC)n1 [Compound S9S9D9] | 19.3% | 19.3%
CCCCCCCCCSc1nc(NCC2CCN(C)CC2)nc(SCCCCCCCCC)n1 [Compound S9S9D10] | 11.3% | 34.9%
CCCCCCCCCCSc1nc(NCCN(C)C)nc(SCCCCCCCCC)n1 [Compound S9S10D1] | 8.6% | 5.0%
CCCCCCCCCCSc1nc(NCCN2CCOCC2)nc(SCCCCCCCCC)n1 [Compound S9S10D2] | 10.7% | 2.5%
CCCCCCCCCCSc1nc(NCCN2CCCC2)nc(SCCCCCCCCC)n1 [Compound S9S10D3] | 10.3% | 70.1%
CCCCCCCCCCSc1nc(NCCN2CCCCC2)nc(SCCCCCCCCC)n1 [Compound S9S10D4] | 13.3% | 4.1%
CCCCCCCCCCSc1nc(NCCN2CCN(C)CC2)nc(SCCCCCCCCC)n1 [Compound S9S10D5] | 27.6% | 61.4%
CCCCCCCCCCSc1nc(NCCCN(C)C)nc(SCCCCCCCCC)n1 [Compound S9S10D6] | 21.2% | 74.6%
CCCCCCCCCCSc1nc(NCCN(CC)CC)nc(SCCCCCCCCC)n1 [Compound S9S10D7] | 8.3% | 2.8%
CCCCCCCCCCSc1nc(NCCCN2CCOCC2)nc(SCCCCCCCCC)n1 [Compound S9S10D8] | 22.5% | 9.8%
CCCCCCCCCCSc1nc(NCCCN2CCN(C)CC2)nc(SCCCCCCCCC)n1 [Compound S9S10D9] | 34.1% | 46.6%
CCCCCCCCCCSc1nc(NCC2CCN(C)CC2)nc(SCCCCCCCCC)n1 [Compound S9S10D10] | 18.7% | 47.2%
CCCCCCCCCCCSc1nc(NCCN(C)C)nc(SCCCCCCCCC)n1 [Compound S9S11D1] | 9.5% | 3.0%
CCCCCCCCCCCSc1nc(NCCN2CCOCC2)nc(SCCCCCCCCC)n1 [Compound S9S11D2] | 17.3% | 3.3%
CCCCCCCCCCCSc1nc(NCCN2CCCC2)nc(SCCCCCCCCC)n1 [Compound S9S11D3] | 10.0% | 1.9%
CCCCCCCCCCCSc1nc(NCCN2CCCCC2)nc(SCCCCCCCCC)n1 [Compound S9S11D4] | 15.2% | 4.1%
CCCCCCCCCCCSc1nc(NCCN2CCN(C)CC2)nc(SCCCCCCCCC)n1 [Compound S9S11D5] | 11.4% | 48.6%
CCCCCCCCCCCSc1nc(NCCCN(C)C)nc(SCCCCCCCCC)n1 [Compound S9S11D6] | 41.9% | 85.1%
CCCCCCCCCCCSc1nc(NCCN(CC)CC)nc(SCCCCCCCCC)n1 [Compound S9S11D7] | 8.1% | 2.5%
CCCCCCCCCCCSc1nc(NCCCN2CCOCC2)nc(SCCCCCCCCC)n1 [Compound S9S11D8] | 21.8% | 24.4%
CCCCCCCCCCCSc1nc(NCCCN2CCN(C)CC2)nc(SCCCCCCCCC)n1 [Compound S9S11D9] | 8.5% | 49.7%
CCCCCCCCCCCSc1nc(NCC2CCN(C)CC2)nc(SCCCCCCCCC)n1 [Compound S9S11D10] | 32.8% | 88.8%
CCCCCCCCCCCCCCCCCCSc1nc(NCCN(C)C)nc(SCCCCCCCCC)n1 [Compound S9S18D1] | 4.9% | 2.7%
CCCCCCCCCCCCCCCCCCSc1nc(NCCN2CCOCC2)nc(SCCCCCCCCC)n1 [Compound S9S18D2] | 2.3% | 0.0%

Compound | Absolute DNA transfection efficiency in HEK293 cells (HEK293 cells [1]) | Absolute mRNA transfection efficiency in HEK293 cells (HEK293 cells [2])
CCCCCCCCCCCCCCCCCCSc1nc(NCCN2CCCC2)nc(SCCCCCCCCC)n1 [Compound S9S18D3] | 13.9% | 35.8%
CCCCCCCCCCCCCCCCCCSc1nc(NCCN2CCCCC2)nc(SCCCCCCCCC)n1 [Compound S9S18D4] | 5.5% | 0.6%
CCCCCCCCCCCCCCCCCCSc1nc(NCCN2CCN(C)CC2)nc(SCCCCCCCCC)n1 [Compound S9S18D5] | 4.0% | 22.0%
CCCCCCCCCCCCCCCCCCSc1nc(NCCCN(C)C)nc(SCCCCCCCCC)n1 [Compound S9S18D6] | 1.7% | 11.6%
CCCCCCCCCCCCCCCCCCSc1nc(NCCN(CC)CC)nc(SCCCCCCCCC)n1 [Compound S9S18D7] | 11.8% | 1.9%
CCCCCCCCCCCCCCCCCCSc1nc(NCCCN2CCOCC2)nc(SCCCCCCCCC)n1 [Compound S9S18D8] | 27.0% | 12.4%
CCCCCCCCCCCCCCCCCCSc1nc(NCCCN2CCN(C)CC2)nc(SCCCCCCCCC)n1 [Compound S9S18D9] | 0.0% | 4.0%
CCCCCCCCCCCCCCCCCCSc1nc(NCC2CCN(C)CC2)nc(SCCCCCCCCC)n1 [Compound S9S18D10] | 7.0% | 43.6%
CCCCCCCCCCSc1nc(NCCN(C)C)nc(SCCCCCCCCCC)n1 [Compound S10S10D1] | 7.8% | 0.7%
CCCCCCCCCCSc1nc(NCCN2CCOCC2)nc(SCCCCCCCCCC)n1 [Compound S10S10D2] | 4.0% | 0.4%
CCCCCCCCCCSc1nc(NCCN2CCCC2)nc(SCCCCCCCCCC)n1 [Compound S10S10D3] | 13.6% | 5.0%
CCCCCCCCCCSc1nc(NCCN2CCCCC2)nc(SCCCCCCCCCC)n1 [Compound S10S10D4] | 5.5% | 2.5%
CCCCCCCCCCSc1nc(NCCN2CCN(C)CC2)nc(SCCCCCCCCCC)n1 [Compound S10S10D5] | 14.7% | 45.9%
CCCCCCCCCCSc1nc(NCCCN(C)C)nc(SCCCCCCCCCC)n1 [Compound S10S10D6] | 23.6% | 59.1%
CCCCCCCCCCSc1nc(NCCN(CC)CC)nc(SCCCCCCCCCC)n1 [Compound S10S10D7] | 7.2% | 2.0%
CCCCCCCCCCSc1nc(NCCCN2CCOCC2)nc(SCCCCCCCCCC)n1 [Compound S10S10D8] | 14.0% | 13.8%
CCCCCCCCCCSc1nc(NCCCN2CCN(C)CC2)nc(SCCCCCCCCCC)n1 [Compound S10S10D9] | 13.4% | 51.3%
CCCCCCCCCCSc1nc(NCC2CCN(C)CC2)nc(SCCCCCCCCCC)n1 [Compound S10S10D10] | 18.8% | 87.1%
CCCCCCCCCCCSc1nc(NCCN(C)C)nc(SCCCCCCCCCC)n1 [Compound S10S11D1] | 7.0% | 1.2%
CCCCCCCCCCCSc1nc(NCCN2CCOCC2)nc(SCCCCCCCCCC)n1 [Compound S10S11D2] | 2.2% | 0.6%
CCCCCCCCCCCSc1nc(NCCN2CCCC2)nc(SCCCCCCCCCC)n1 [Compound S10S11D3] | 6.8% | 4.4%
CCCCCCCCCCCSc1nc(NCCN2CCCCC2)nc(SCCCCCCCCCC)n1 [Compound S10S11D4] | 16.7% | 0.0%
CCCCCCCCCCCSc1nc(NCCN2CCN(C)CC2)nc(SCCCCCCCCCC)n1 [Compound S10S11D5] | 8.4% | 61.1%
CCCCCCCCCCCSc1nc(NCCCN(C)C)nc(SCCCCCCCCCC)n1 [Compound S10S11D6] | 8.2% | 83.8%
